Assay results taken from patent publication US11419869B2, “Dosage forms and regimens for amino acid compounds” (Pliant Therapeutics, Inc., priority 2019, dated 2022).

The molecules below were run against recombinant human integrin αvβ6 (Homo sapiens (Human), UniProt P06756+P18564) (assay: Solid Phase Integrin αvβ6 Binding Assay (Examples B1, B2)). Conditions: TGFβ1 LAP ligand, values given in four ranges, read-out: αvβ6 Inhibition IC50 (nM)-range.
In short: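 Plates coated with recombinant human αvβ6 (2 μg/mL) compete compound against recombinant TGFβ1 LAP (0.67 μg/mL) in TBS binding buffer with 0.5 mM MnCl2, 2 h at 25 °C. Bound LAP detected with biotin-anti-hLAP and peroxidase-streptavidin; IC50 by four-parameter logistic regression.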

recombinant human integrin αvβ6, sequence (P06756 31-992): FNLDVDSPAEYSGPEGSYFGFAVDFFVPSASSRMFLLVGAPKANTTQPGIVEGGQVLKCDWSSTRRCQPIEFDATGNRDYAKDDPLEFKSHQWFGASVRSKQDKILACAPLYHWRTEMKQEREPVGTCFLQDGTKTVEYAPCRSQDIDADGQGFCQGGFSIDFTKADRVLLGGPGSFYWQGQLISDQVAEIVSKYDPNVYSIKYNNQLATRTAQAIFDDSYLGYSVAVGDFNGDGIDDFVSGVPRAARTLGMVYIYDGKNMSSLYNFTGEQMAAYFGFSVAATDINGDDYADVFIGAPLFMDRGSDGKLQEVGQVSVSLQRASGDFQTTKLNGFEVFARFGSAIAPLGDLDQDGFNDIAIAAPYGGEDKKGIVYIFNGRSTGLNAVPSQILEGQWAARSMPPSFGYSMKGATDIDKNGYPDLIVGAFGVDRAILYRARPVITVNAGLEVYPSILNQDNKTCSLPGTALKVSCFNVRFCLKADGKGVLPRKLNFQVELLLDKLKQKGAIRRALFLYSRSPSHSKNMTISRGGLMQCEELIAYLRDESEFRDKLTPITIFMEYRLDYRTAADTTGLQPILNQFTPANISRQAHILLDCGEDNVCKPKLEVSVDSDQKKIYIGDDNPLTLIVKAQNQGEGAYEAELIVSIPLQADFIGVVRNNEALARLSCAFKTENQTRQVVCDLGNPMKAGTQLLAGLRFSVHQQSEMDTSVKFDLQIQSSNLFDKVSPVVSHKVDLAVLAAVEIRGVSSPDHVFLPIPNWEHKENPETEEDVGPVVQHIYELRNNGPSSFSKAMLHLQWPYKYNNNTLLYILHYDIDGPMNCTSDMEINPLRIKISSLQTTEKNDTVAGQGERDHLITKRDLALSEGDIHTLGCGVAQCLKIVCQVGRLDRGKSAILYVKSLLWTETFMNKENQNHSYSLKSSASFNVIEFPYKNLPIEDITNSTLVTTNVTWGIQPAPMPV
recombinant human integrin αvβ6, sequence (P18564 22-707): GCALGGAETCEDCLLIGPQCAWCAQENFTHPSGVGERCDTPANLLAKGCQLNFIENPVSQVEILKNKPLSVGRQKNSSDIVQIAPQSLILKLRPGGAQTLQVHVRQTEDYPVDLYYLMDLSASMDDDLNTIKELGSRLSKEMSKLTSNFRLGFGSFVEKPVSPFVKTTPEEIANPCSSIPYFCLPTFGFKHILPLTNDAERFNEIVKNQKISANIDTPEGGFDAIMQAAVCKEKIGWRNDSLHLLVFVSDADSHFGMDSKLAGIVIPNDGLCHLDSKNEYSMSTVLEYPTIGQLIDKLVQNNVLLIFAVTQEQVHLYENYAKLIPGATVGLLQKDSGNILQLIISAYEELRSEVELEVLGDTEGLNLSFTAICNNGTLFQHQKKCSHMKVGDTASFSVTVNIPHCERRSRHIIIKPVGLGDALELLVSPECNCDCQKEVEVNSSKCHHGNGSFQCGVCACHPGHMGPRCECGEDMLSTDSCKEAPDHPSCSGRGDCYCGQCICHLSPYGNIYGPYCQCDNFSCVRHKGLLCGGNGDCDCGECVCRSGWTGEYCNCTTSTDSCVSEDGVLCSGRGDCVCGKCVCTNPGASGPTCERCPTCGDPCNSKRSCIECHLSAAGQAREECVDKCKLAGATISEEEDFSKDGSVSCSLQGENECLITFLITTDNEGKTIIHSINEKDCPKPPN

SMILES	IC50 [nM]
CS(=O)(=O)CCN(CCCCc1ccc2c(n1)NCCC2)CC[C@H](Nc1ccnc(C(F)(F)F)n1)C(=O)O [Compound 104, (S)-4-((2-(methylsulfonyl)ethyl) (4-(5,6,7,8-tetrahydro-1,8-naphthyridin-2-yl)butyl)amino)-2-((2-(trifluoromethyl)pyrimidin-4-yl)amino) butanoic acid]	> 1000
COC[C@@H](F)CN(CCCCc1ccc2c(n1)NCCC2)CC[C@H](Nc1ncnc2c1cnn2C)C(=O)O [Compound 105, (S)-4-(((S)-2-fluoro-3-methoxypropyl) (4-(5,6,7,8-tetrahydro-1,8-naphthyridin-2-yl)butyl)amino)-2-((1-methyl-1H-pyrazolo[3,4-d]pyrimidin-4-yl)amino) butanoic acid]	< 50
CO[C@H](C)CN(CCCCc1ccc2c(n1)NCCC2)CC[C@H](Nc1ccncn1)C(=O)O [Compound 106, (S)-4-(((R)-2-methoxypropyl) (4-(5,6,7,8-tetrahydro-1,8-naphthyridin-2-yl)butyl)amino)-2-(pyrimidin-4-ylamino) butanoic acid]	< 50
CS(=O)(=O)CCN(CCCCc1ccc2c(n1)NCCC2)CC[C@H](Nc1nc(-c2cccnc2)nc2ccccc12)C(=O)O [Compound 107, (S)-4-((2-(methylsufonyl)ethyl) (4-(5,6,7,8-tetrahydro-1,8-naphthyridin-2-yl)butyl)amino)-2-((2-(pyridin-3-yl)quinazolin-4-yl)amino) butanoic acid]	250 to 1000
COC[C@@H](F)CN(CCCCc1ccc2c(n1)NCCC2)CC[C@H](Nc1cc(-n2cccn2)ncn1)C(=O)O [Compound 108, (S)-2-((6-(1H-pyrazol-1-yl)pyrimidin-4-yl)amino)-4-(((S)-2-fluoro-3-methoxypropyl) (4-(5,6,7,8-tetrahydro-1,8-naphthyridin-2-yl)butyl)amino) butanoic acid]	> 1000
COC[C@@H](F)CN(CCCCc1ccc2c(n1)NCCC2)CC[C@H](Nc1nc(-c2cccnc2)nc2ccccc12)C(=O)O [Compound 109, (S)-4-(((S)-2-fluoro-3-methoxypropyl) (4-(5,6,7,8-tetrahydro-1,8-naphthyridin-2-yl)butyl)amino)-2-((2-(pyridin-3-yl)quinazolin-4-yl)amino) butanoic acid]	< 50
COC[C@@H](F)CN(CCCCc1ccc2c(n1)NCCC2)CC[C@H](Nc1ncncc1-c1ccccc1)C(=O)O [Compound 110, (S)-4-(((S)-2-fluoro-3-methoxypropyl) (4-(5,6,7,8-tetrahydro-1,8-naphthyridin-2-yl)butyl)amino)-2-((5-phenylpyrimidin-4-yl)amino) butanoic acid]	< 50
N#Cc1cnc(N[C@@H](CCN(CCCCc2ccc3c(n2)NCCC3)CCOc2ccccc2)C(=O)O)nc1 [Compound 111, (S)-2-((5-cyanopyrimidin-2-yl)amino)-4-((2-phenoxyethyl) (4-(5,6,7,8-tetrahydro-1,8-naphthyridin-2-yl)butyl)amino) butanoic acid]	< 50
O=C(O)[C@H](CCN(CCCCc1ccc2c(n1)NCCC2)C1CC1)Nc1ncc(C(F)(F)F)cn1 [Compound 114, (S)-4-(cyclopropyl(4-(5,6,7,8-tetrahydro-1,8-naphthyridin-2-yl)butyl)amino)-2-((5-(trifluoromethyl)pyrimidin-2-yl)amino) butanoic acid]	< 50
O=C(O)[C@H](CCN(CCCCc1ccc2c(n1)NCCC2)CCOc1ccccc1)Nc1ncc(C2CC2)cn1 [Compound 117, (S)-2-((5-cyclopropylpyrimidin-2-yl)amino)-4-((2-phenoxyethyl) (4-(5,6,7,8-tetrahydro-1,8-naphthyridin-2-yl)butyl)amino) butanoic acid]	< 50
N#Cc1cnc(N[C@@H](CCN(CCCCc2ccc3c(n2)NCCC3)CC(F)F)C(=O)O)nc1 [Compound 118, (S)-2-((5-cyanopyrimidin-2-yl)amino)-4-((2,2-difluoroethyl) (4-(5,6,7,8-tetrahydro-1,8-naphthyridin-2-yl)butyl)amino) butanoic acid]	> 1000
O=C(O)[C@H](CCN(CCCCc1ccc2c(n1)NCCC2)CC(F)F)Nc1ncncc1-c1ccccc1 [Compound 119, (S)-4-((2,2-difluoroethyl) (4-(5,6,7,8-tetrahydro-1,8-naphthyridin-2-yl)butyl)amino)-2-((5-phenylpyrimidin-4-yl)amino) butanoic acid]	> 1000
O=C(O)[C@H](CCN(CCCCc1ccc2c(n1)NCCC2)CC(F)F)Nc1ccncn1 [Compound 120, (S)-4-((2,2-difluoroethyl) (4-(5,6,7,8-tetrahydro-1,8-naphthyridin-2-yl)butyl)amino)-2-(pyrimidin-4-ylamino) butanoic acid]	> 1000
O=C(O)[C@H](CCN(CCCCc1ccc2c(n1)NCCC2)CC(F)F)Nc1ncc(F)cn1 [Compound 121, (S)-4-((2,2-difluoroethyl) (4-(5,6,7,8-tetrahydro-1,8-naphthyridin-2-yl)butyl)amino)-2-((5-fluoropyrimidin-2-yl)amino) butanoic acid]	> 1000
Cn1ncc2c(N[C@@H](CCN(CCCCc3ccc4c(n3)NCCC4)CCOc3ccc(F)cc3)C(=O)O)ncnc21 [Compound 123, (S)-4-((2-(4-fluorophenoxy)ethyl) (4-(5,6,7,8-tetrahydro-1,8-naphthyridin-2-yl)butyl)amino)-2-((1-methyl-1H-pyrazolo[3,4-d]pyrimidin-4-yl)amino) butanoic acid]	< 50
CO[C@H](C)CN(CCCCc1ccc2c(n1)NCCC2)CC[C@H](Nc1ncc(C2CC2)cn1)C(=O)O [Compound 124, (S)-2-((5-cyclopropylpyrimidin-2-yl)amino)-4-(((R)-2-methoxypropyl) (4-(5,6,7,8-tetrahydro-1,8-naphthyridin-2-yl)butyl)amino) butanoic acid]	< 50
CS(=O)(=O)CCN(CCCCc1ccc2c(n1)NCCC2)CC[C@H](Nc1cc(-n2cccn2)ncn1)C(=O)O [Compound 126, (S)-2-((6-(1H-pyrazol-1-yl)pyrimidin-4-yl)amino)-4-((2-(methylsulfonyl)ethyl) (4-(5,6,7,8-tetrahydro-1,8-naphthyridin-2-yl)butyl)amino) butanoic acid]	> 1000
COC[C@@H](F)CN(CCCCc1ccc2c(n1)NCCC2)CC[C@H](Nc1cc(-c2ccccc2)ncn1)C(=O)O [Compound 128, (S)-4-(((S)-2-fluoro-3-methoxypropyl) (4-(5,6,7,8-tetrahydro-1,8-naphthyridin-2-yl)butyl)amino)-2-((6-phenylpyrimidin-4-yl)amino) butanoic acid]	> 1000
O=C(O)[C@H](CCN(CCCCc1ccc2c(n1)NCCC2)CC1CCO1)Nc1ncnc2ccccc12 (stereo partly drawn) [Compound 129, (2S)-4-((oxetan-2-ylmethyl) (4-(5,6,7,8-tetrahydro-1,8-naphthyridin-2-yl)butyl)amino)-2-(quinazolin-4-ylamino) butanoic acid]	< 50
O=C(O)[C@H](CCN(CCCCc1ccc2c(n1)NCCC2)CC(CO)CO)Nc1ncnc2ccccc12 [Compound 130, (S)-4-((3-hydroxy-2-(hydroxymethyl)propyl) (4-(5,6,7,8-tetrahydro-1,8-naphthyridin-2-yl)butyl)amino)-2-(quinazolin-4-ylamino) butanoic acid]	< 50
Cn1ncc2c(N[C@@H](CCN(CCCF)CCCCc3ccc4c(n3)NCCC4)C(=O)O)ncnc21 [Compound 136, (S)-4-((3-fluoropropyl) (4-(5,6,7,8-tetrahydro-1,8-naphthyridin-2-yl)butyl)amino)-2-((1-methyl-1H-pyrazolo[3,4-d]pyrimidin-4-yl)amino) butanoic acid]	< 50
O=C(O)[C@H](CCN(CCCF)CCCCc1ccc2c(n1)NCCC2)Nc1ncc(C(F)(F)F)cn1 [Compound 137, (S)-4-((3-fluoropropyl) (4-(5,6,7,8-tetrahydro-1,8-naphthyridin-2-yl)butyl)amino)-2-((5-(trifluoromethyl)pyrimidin-2-yl)amino) butanoic acid]	< 50
N#Cc1cnc(N[C@@H](CCN(CCCCc2ccc3c(n2)NCCC3)CCOc2ccc(F)cc2)C(=O)O)nc1 [Compound 138, (S)-2-((5-cyanopyrimidin-2-yl)amino)-4-((2-(4-fluorophenoxy)ethyl) (4-(5,6,7,8-tetrahydro-1,8-naphthyridin-2-yl)butyl)amino) butanoic acid]	< 50
O=C(O)[C@H](CCN(CCCCc1ccc2c(n1)NCCC2)CCOc1ccc(F)cc1)Nc1ncc(C(F)(F)F)cn1 [Compound 139, (S)-4-((2-(4-fluorophenoxy)ethyl) (4-(5,6,7,8-tetrahydro-1,8-naphthyridin-2-yl)butyl)amino)-2-((5-(trifluoromethyl)pyrimidin-2-yl)amino) butanoic acid]	< 50
CN(C)C(=O)CN(CCCCc1ccc2c(n1)NCCC2)CC[C@H](Nc1ncnc2c1cnn2C)C(=O)O [Compound 140, (S)-4-((2-(dimethylamino)-2-oxoethyl) (4-(5,6,7,8-tetrahydro-1,8-naphthyridin-2-yl)butyl)amino)-2-((1-methyl-1H-pyrazolo[3,4-d]pyrimidin-4-yl)amino) butanoic acid]	< 50
O=C(O)[C@H](CCN(CCCCc1ccc2c(n1)NCCC2)CC(F)F)Nc1cc(-c2ccccc2)ncn1 [Compound 142, (S)-4-((2,2-difluoroethyl) (4-(5,6,7,8-tetrahydro-1,8-naphthyridin-2-yl)butyl)amino)-2-((6-phenylpyrimidin-4-yl)amino) butanoic acid]	> 1000
CN(C)C(=O)CN(CCCCc1ccc2c(n1)NCCC2)CC[C@H](Nc1ccnc(C(F)(F)F)n1)C(=O)O [Compound 145, (S)-4-((2-(dimethylamino)-2-oxoethyl) (4-(5,6,7,8-tetrahydro-1,8-naphthyridin-2-yl)butyl)amino)-2-((2-(trifluoromethyl)pyrimidin-4-yl)amino) butanoic acid]	< 50
